Results: ChEMBL document CHEMBL1124449, “Synthesis and evaluation of the pharmacological activity of rigid analogues of sympathomimetic catecholamines derived from bicyclo[2.2.1]heptane” (J Med Chem, 1989)
The source made the active and inactive calls.

Columns and labels:
[1] = biological target: Beta-2 adrenergic receptor (Canis lupus familiaris) (UniProt P54833); experiment: Stimulation or blockade of Beta-2 adrenergic receptor on guinea pig trachea up to a dose of 10e-4 M; conditions: Cavia porcellus; target entry is the homologue from another species
[2] = biological target: Beta-1 adrenergic receptor (Cavia porcellus) (UniProt B0FL73); experiment: Stimulation or blockade of Beta-1 adrenergic receptor on guinea pig atria up to a dose of 10e-4 M
[3] = Stimulation or blockade of Alpha adrenergic receptor on rat vas deferens up to a dose of 10e-4 M; assay type: tissue-based

Measured: Activity

Beta-1 adrenergic receptor (Cavia porcellus), sequence (B0FL73 1-467): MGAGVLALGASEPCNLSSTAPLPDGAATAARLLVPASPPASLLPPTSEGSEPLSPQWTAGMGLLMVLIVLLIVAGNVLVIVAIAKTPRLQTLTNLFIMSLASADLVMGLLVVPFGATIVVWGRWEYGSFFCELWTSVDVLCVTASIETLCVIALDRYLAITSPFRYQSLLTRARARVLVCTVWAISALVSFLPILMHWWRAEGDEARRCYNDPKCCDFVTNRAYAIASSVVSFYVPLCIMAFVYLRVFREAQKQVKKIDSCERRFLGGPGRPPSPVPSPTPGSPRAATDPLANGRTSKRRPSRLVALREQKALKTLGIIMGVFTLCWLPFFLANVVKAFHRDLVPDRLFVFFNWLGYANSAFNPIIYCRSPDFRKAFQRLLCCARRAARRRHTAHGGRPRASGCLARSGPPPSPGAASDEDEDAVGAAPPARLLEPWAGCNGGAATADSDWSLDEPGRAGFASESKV
Beta-2 adrenergic receptor (Canis lupus familiaris), sequence (P54833 whole entry, looked up): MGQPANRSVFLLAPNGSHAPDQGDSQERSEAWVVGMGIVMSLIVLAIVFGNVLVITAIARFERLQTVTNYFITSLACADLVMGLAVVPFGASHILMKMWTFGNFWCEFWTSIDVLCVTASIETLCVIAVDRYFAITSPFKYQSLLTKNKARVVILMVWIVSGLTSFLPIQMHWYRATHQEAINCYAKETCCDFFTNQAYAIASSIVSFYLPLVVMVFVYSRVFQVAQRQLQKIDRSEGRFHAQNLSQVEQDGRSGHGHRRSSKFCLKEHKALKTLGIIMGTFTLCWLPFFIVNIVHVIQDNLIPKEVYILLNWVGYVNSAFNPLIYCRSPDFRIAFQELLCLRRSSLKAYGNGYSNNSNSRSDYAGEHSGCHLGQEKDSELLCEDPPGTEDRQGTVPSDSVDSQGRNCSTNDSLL

NC1C2CCC(C2)C1(O)c1ccc(O)c(O)c1 (stereo unspecified)
inactive: [1] | [2] | [3]

CC(C)NC1C2CCC(C2)C1(O)c1ccc(O)c(O)c1 (stereo unspecified)
inactive: [1] | [2] | [3]
